Structures are written as SMILES. Values after ≈ are worked out from the molar mass of the structure shown.

For orientation: IC50 means the concentration that gives 50% inhibition.

Assay [1] can be described thus: Inhibition of T3SS-mediated LcrQ secretion in Yersinia pseudotuberculosis assessed as yopE promoter-luciferase gene expression by luciferase reporter gene assay. Background: A reporter such as luciferase makes a cellular process visible.
Assay [2] can be described thus: Inhibition of phospholipase A2 activity of Pseudomonas aeruginosa N-terminal His6-tagged ExoU expressed in Escherichia coli BL21 cells using arachidonic TEPC as substrate by Ellman's method. (In general: Ellman's reagent forms a yellow product with free thiols.)
Assay [3] can be described thus: Inhibition of Escherichia coli T3SS-mediated hemolysis of sheep erythrocytes by microplate reader analysis.
A short description of assay [4]: Inhibition of Escherichia coli T3SS-mediated hemolysis of erythrocytes.
Assay [5] can be described thus: Inhibition of T3SS-mediated YopE secretion in Yersinia pestis KIM19 by ELISA. (In general: An ELISA detects its analyte on a solid surface through an enzyme-linked reagent.)
The nature of assay [6]: Inhibition of T3SS-mediated ExoU secretion in Pseudomonas aeruginosa PA103.
Assay [7] in a line: Inhibition of T3SS-mediated SipB secretion in Salmonella typhimurium. Set-up: species or system Salmonella enterica subsp. enterica serovar Typhimurium.
Assay [8] is described as follows: Inhibition of T3SS-mediated carboxypeptidase G2-SopE2-HA secretion in Salmonella typhimurium by fluorescence analysis. Further details: species or system Salmonella enterica subsp. enterica serovar Typhimurium.

As for `O=C(N/N=C/c1ccc(O)cc1O)c1ccc([N+](=O)[O-])cc1`, the IC50 in assay [1] was found to be 25 µM.
As for `NC(=O)c1cccc2c1-c1ccccc1C2`, half-maximal inhibition in assay [2] (IC50) required 7 µM.
With `CC(C)[C@H](NC(=O)[C@H](C)NC(=O)[C@@H](N)[C@@H](N)CC[C@@H](O)[C@@H](O)C(O)[C@@H]1CN(C(N)=O)C(=N)N1)C(=O)O` (some centres not stated), the IC50 in assay [3] came out at 0.02 µM.
In assay [4], `C/C=C\C=C\[C@@H]1O[C@](O)([C@H](CC)C(=O)NC/C=C/C=C(\C)[C@@H](OC)[C@@H](C)[C@@H]2O[C@H](/C=C/C=C/C=C(\C)C(=O)c3c(O)ccn(C)c3=O)[C@H](O)[C@@H]2O)[C@H](O)[C@H](O)C1(C)C` registered an IC50 of 1.5 mg/L (≈ 1.85 µM).
In turn, `CC(=O)Nc1ccc(N2C(=O)c3ccc(C(=O)OC(C)C(=O)c4c[nH]c5ccccc45)cc3C2=O)cc1` (configuration not stated) registered an IC50 in assay [5] of 20 µM.
On the same count and under the same terms, the same measure for `O=C(Cc1csc(NC(=O)c2ccccc2)n1)Nn1cnc2scc(-c3ccco3)c2c1=O`: 20 µM.
`O=C(O)C(Cc1ccc(Cl)cc1)Nc1nc(-c2ccc(-c3ccccc3)cc2)nc(N2CCN(c3ccccn3)CC2)n1` (configuration not stated): the values for the IC50 in assay [6] and in assay [7] were over 100 µM and 20 µM, respectively.
For `O=C(N/N=C/c1cc(Cl)cc(Cl)c1O)c1ccccc1`, the IC50 in assay [1] was determined as 25 µM.
Still for that read-out and setting: the value for `O=C(N/N=C/c1cc(Br)cc(Br)c1O)c1cccnc1` was 25 µM.
With `O=C(N/N=C/c1cc(Br)cc(Br)c1O)c1ccc([N+](=O)[O-])cc1`, the IC50 in assay [8] worked out at 5.5 µM; in assay [1] it was 15 µM.
